Reference: patent publication US20260356819A1, “OXOISOINDOLINYL-SUBSTITUTED […] DERIVATIVE AND USE THEREOF” (GLUETACS THERAPEUTICS (SHANGHAI) CO., LTD., priority 2023, published 2026)

Legend:
Format in all cases: cell-based
Conditions in all cases: compounds at 50 nM and 500 nM
WEE1 = biological target: T1, WEE1 (Homo sapiens, UniProt P30291+Q96SW2); assay: Western blot degradation of WEE1 in hPBMCs (24 h)
T1 construct: The supernatant was aspirated as the extracted total cell protein; endogenous in cells; host or cells: human peripheral blood mononuclear cells (hPBMCs)
T1 sequence (P30291 whole entry): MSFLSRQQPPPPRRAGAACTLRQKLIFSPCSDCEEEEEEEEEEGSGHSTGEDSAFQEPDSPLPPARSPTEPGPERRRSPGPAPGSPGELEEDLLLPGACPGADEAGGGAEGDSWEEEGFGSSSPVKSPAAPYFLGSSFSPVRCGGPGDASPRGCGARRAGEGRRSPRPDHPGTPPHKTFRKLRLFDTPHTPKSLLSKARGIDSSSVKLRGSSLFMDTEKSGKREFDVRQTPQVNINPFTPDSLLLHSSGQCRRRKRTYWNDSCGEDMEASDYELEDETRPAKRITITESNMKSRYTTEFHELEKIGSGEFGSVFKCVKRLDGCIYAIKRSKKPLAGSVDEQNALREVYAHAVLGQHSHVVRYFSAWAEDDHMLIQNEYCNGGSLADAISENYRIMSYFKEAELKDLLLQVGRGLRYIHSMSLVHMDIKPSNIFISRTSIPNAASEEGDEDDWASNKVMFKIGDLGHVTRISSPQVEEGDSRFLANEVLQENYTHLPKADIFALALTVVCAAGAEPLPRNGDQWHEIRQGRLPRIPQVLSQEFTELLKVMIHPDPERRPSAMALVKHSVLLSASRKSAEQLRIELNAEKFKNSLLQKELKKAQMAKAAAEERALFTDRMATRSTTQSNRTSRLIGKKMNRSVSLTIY
T1 sequence (Q96SW2 whole entry): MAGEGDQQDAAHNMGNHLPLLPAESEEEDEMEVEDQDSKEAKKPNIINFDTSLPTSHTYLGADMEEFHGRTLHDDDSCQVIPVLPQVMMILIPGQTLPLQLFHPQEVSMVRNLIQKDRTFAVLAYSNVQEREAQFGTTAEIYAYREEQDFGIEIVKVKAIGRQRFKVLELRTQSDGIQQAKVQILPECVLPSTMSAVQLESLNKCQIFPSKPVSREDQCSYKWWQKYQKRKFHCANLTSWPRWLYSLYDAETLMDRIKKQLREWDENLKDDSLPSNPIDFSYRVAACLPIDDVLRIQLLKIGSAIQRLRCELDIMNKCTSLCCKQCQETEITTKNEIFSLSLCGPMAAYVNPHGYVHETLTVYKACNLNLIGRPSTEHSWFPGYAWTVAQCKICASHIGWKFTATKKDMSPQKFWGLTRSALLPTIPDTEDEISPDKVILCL
T1 sequence (Q16531 whole entry partner): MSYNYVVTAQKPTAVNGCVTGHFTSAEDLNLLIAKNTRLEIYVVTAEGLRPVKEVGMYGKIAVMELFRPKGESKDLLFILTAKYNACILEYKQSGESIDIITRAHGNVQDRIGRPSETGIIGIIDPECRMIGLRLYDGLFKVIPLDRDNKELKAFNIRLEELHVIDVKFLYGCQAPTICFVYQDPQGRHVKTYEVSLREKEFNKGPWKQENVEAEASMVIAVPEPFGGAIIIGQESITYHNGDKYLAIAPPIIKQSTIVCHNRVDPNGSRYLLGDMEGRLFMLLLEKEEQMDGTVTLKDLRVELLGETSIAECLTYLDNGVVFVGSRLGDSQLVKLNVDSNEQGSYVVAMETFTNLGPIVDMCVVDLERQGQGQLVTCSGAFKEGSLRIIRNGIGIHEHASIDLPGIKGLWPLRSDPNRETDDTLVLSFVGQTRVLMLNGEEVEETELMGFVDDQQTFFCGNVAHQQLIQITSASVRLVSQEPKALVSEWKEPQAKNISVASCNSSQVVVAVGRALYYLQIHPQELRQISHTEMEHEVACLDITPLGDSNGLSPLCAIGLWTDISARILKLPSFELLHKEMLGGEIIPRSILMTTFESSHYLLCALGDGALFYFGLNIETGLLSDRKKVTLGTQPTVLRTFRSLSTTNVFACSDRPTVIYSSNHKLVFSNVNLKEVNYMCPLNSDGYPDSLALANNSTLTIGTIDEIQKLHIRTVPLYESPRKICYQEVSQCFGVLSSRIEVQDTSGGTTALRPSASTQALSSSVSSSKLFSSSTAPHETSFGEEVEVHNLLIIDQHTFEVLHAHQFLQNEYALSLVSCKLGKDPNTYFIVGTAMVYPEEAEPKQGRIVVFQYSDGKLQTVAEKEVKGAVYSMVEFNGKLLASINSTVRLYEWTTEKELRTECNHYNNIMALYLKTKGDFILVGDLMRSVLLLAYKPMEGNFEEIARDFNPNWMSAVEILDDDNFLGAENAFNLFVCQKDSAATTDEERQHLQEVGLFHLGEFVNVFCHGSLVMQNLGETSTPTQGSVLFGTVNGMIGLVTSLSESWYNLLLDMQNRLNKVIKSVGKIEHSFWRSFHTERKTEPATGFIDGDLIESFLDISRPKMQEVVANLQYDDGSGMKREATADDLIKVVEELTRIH
Method in brief: (§1)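 Compounds were tested at 50 nM and 500 nM on hPBMCs (1×10^6 cells/mL) for 24 h, alongside DMSO. Proteins were detected by Western blot after denaturation at 95 °C; remaining protein computed from normalised band grayscale.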

IKZF1 = biological target: T2, IKZF1 (Homo sapiens, UniProt Q13422+Q96SW2); assay: Western blot degradation of IKZF1 in hPBMCs (24 h)
T2 construct: The supernatant was aspirated as the extracted total cell protein; endogenous in cells; host or cells: human peripheral blood mononuclear cells (hPBMCs)
Method in brief: as §1

IKZF2 = biological target: T3, IKZF2 (Homo sapiens, UniProt Q96SW2+Q9UKS7); assay: Western blot degradation of IKZF2 in hPBMCs (24 h)
T3 construct: The supernatant was aspirated as the extracted total cell protein; endogenous in cells; host or cells: human peripheral blood mononuclear cells (hPBMCs)
T3 sequence (Q9UKS7 whole entry): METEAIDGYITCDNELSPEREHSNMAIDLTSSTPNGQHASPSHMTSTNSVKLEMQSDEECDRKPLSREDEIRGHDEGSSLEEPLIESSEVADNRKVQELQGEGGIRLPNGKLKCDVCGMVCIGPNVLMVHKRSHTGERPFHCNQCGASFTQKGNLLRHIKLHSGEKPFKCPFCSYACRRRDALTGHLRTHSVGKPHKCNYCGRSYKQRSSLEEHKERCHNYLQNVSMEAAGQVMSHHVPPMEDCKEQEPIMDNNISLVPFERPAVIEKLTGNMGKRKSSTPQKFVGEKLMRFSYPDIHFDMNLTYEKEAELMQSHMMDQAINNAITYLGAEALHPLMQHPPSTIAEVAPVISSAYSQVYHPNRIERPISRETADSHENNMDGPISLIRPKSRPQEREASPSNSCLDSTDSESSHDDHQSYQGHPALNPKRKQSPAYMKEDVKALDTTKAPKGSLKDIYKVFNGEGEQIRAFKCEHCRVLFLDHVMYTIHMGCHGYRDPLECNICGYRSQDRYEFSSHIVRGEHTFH
T3 sequence (Q96SW2 whole entry): as the sequence (Q96SW2 whole entry) above
T3 sequence (Q16531 whole entry partner): as the sequence (Q16531 whole entry partner) above
Method in brief: as §1

IKZF3 = biological target: T4, IKZF3 (Homo sapiens, UniProt Q96SW2+Q9UKT9); assay: Western blot degradation of IKZF3 in hPBMCs (24 h)
T4 construct: The supernatant was aspirated as the extracted total cell protein; endogenous in cells; host or cells: human peripheral blood mononuclear cells (hPBMCs)
T4 sequence (Q9UKT9 whole entry): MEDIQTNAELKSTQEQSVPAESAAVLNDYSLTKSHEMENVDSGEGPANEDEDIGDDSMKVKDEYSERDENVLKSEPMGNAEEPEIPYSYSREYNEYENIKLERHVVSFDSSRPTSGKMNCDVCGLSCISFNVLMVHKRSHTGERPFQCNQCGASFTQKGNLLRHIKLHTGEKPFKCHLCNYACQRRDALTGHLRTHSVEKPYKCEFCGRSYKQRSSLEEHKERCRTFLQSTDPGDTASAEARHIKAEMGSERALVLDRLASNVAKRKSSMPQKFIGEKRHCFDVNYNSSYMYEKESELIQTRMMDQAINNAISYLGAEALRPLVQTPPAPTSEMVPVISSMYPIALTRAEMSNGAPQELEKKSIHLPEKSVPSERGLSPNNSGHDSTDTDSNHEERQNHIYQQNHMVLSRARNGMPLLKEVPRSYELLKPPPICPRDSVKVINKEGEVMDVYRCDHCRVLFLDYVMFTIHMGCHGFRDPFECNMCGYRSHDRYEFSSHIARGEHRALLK
T4 sequence (Q96SW2 whole entry): as the sequence (Q96SW2 whole entry) above
T4 sequence (Q16531 whole entry partner): as the sequence (Q16531 whole entry partner) above
Method in brief: as §1

CK1α = biological target: T5, CK1α (Homo sapiens, UniProt P48729+Q96SW2); assay: Western blot degradation of CK1α in hPBMCs (24 h)
T5 construct: The supernatant was aspirated as the extracted total cell protein; endogenous in cells; host or cells: human peripheral blood mononuclear cells (hPBMCs)
T5 sequence (P48729 whole entry): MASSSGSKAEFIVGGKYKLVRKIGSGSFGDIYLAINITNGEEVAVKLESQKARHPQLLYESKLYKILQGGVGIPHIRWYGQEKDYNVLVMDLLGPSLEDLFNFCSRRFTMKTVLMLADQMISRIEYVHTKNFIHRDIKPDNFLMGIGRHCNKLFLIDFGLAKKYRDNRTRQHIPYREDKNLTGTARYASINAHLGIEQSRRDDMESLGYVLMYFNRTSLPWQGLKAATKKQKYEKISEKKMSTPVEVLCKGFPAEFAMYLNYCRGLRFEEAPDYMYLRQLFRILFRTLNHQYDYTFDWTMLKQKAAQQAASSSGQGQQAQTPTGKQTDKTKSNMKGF
T5 sequence (Q96SW2 whole entry): as the sequence (Q96SW2 whole entry) above
T5 sequence (Q16531 whole entry partner): as the sequence (Q16531 whole entry partner) above
Method in brief: as §1

GSPT1 = biological target: T6, GSPT1 (Homo sapiens, UniProt P15170+Q96SW2); assay: Western blot degradation of GSPT1 in hPBMCs (24 h)
T6 construct: The supernatant was aspirated as the extracted total cell protein; endogenous in cells; host or cells: human peripheral blood mononuclear cells (hPBMCs)
T6 sequence (P15170 whole entry): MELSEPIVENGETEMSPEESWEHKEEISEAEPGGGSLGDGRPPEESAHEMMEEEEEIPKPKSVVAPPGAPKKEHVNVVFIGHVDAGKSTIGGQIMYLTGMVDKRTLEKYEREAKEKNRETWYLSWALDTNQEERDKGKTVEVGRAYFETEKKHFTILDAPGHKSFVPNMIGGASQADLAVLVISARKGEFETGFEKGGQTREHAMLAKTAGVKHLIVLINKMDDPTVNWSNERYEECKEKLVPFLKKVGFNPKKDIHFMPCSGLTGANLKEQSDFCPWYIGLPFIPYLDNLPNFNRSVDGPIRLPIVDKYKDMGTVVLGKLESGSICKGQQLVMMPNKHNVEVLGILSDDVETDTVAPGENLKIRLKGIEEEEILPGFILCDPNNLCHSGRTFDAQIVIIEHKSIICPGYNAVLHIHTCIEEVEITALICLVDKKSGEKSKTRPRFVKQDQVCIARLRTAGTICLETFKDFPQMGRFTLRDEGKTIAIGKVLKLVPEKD
T6 sequence (Q96SW2 whole entry): as the sequence (Q96SW2 whole entry) above
T6 sequence (Q16531 whole entry partner): as the sequence (Q16531 whole entry partner) above
Method in brief: as §1

| SMILES | WEE1 substrate protein remaining % (WEE1) | IKZF1 substrate protein remaining % (IKZF1) | IKZF2 substrate protein remaining % (IKZF2) | IKZF3 substrate protein remaining % (IKZF3) | CK1α substrate protein remaining % (CK1α) | GSPT1 substrate protein remaining % (GSPT1) |
| --- | --- | --- | --- | --- | --- | --- |
| Cn1cc(C2=CCN(Cc3ccc4c(c3)C(=O)N(N3CCC(=O)NC3=O)C4=O)CC2)c2ccc(F)cc21 [GT-05276, 2-(2,4-dioxotetrahydropyrimidin-1(2H)-yl)-5-((4-(6-fluoro-1-methyl-1H-indol-3-yl)-3,6-dihydropyridin-1(2H)-yl)methyl)isoindoline-1,3-dione] | B (80%< substrate protein remaining % ≤100%) | B (80%< substrate protein remaining % ≤100%) | B (80%< substrate protein remaining % ≤100%) | A (0% ≤ substrate protein remaining % ≤80%) | B (80%< substrate protein remaining % ≤100%) | A (0% ≤ substrate protein remaining % ≤80%) |
| Cc1ccc(N2CCN(Cc3ccc4c(c3)C(=O)N(N3CCC(=O)NC3=O)C4=O)CC2)s1 [GT-05309, 2-(2,4-dioxotetrahydropyrimidin-1(2H)-yl)-5-((4-(5-methylthiophen-2-yl)piperazin-1-yl)methyl)isoindoline-1,3-dione] | B (80%< substrate protein remaining % ≤100%) | B (80%< substrate protein remaining % ≤100%) | B (80%< substrate protein remaining % ≤100%) | B (80%< substrate protein remaining % ≤100%) | B (80%< substrate protein remaining % ≤100%) | A (0% ≤ substrate protein remaining % ≤80%) |
| Cc1ccc(C2=CCN(Cc3ccc4c(c3)C(=O)N(N3CCC(=O)NC3=O)C4=O)CC2)s1 [GT-05310, 2-(2,4-dioxotetrahydropyrimidin-1(2H)-yl)-5-((4-(5-methylthiophen-2-yl)-3,6-dihydropyridin-1(2H)-yl)methyl)isoindoline-1,3-dione] | B (80%< substrate protein remaining % ≤100%) | B (80%< substrate protein remaining % ≤100%) | B (80%< substrate protein remaining % ≤100%) | B (80%< substrate protein remaining % ≤100%) | B (80%< substrate protein remaining % ≤100%) | A (0% ≤ substrate protein remaining % ≤80%) |
| O=C1CCN(N2C(=O)c3ccc(CN4CCN(c5ccsc5)CC4)cc3C2=O)C(=O)N1 [GT-05313, 2-(2,4-dioxotetrahydropyrimidin-1(2H)-yl)-5-((4-(thiophen-3-yl)piperazin-1-yl)methyl)isoindoline-1,3-dione] | B (80%< substrate protein remaining % ≤100%) | B (80%< substrate protein remaining % ≤100%) | B (80%< substrate protein remaining % ≤100%) | B (80%< substrate protein remaining % ≤100%) | B (80%< substrate protein remaining % ≤100%) | A (0% ≤ substrate protein remaining % ≤80%) |
| Cc1cscc1C1CCN(Cc2ccc3c(c2)C(=O)N(N2CCC(=O)NC2=O)C3=O)CC1 [GT-05314, 2-(2,4-dioxotetrahydropyrimidin-1(2H)-yl)-5-((4-(4-methylthiophen-3-yl)piperidin-1-yl)methyl)isoindoline-1,3-dione] | B (80%< substrate protein remaining % ≤100%) | B (80%< substrate protein remaining % ≤100%) | B (80%< substrate protein remaining % ≤100%) | B (80%< substrate protein remaining % ≤100%) | B (80%< substrate protein remaining % ≤100%) | A (0% ≤ substrate protein remaining % ≤80%) |
| O=C1CCN(N2C(=O)c3ccc(CN4CCC(c5ccco5)CC4)cc3C2=O)C(=O)N1 [GT-05315, 2-(2,4-dioxotetrahydropyrimidin-1(2H)-yl)-5-((4-(furan-2-yl)piperidin-1-yl)methyl)isoindoline-1,3-dione] | B (80%< substrate protein remaining % ≤100%) | B (80%< substrate protein remaining % ≤100%) | B (80%< substrate protein remaining % ≤100%) | B (80%< substrate protein remaining % ≤100%) | B (80%< substrate protein remaining % ≤100%) | A (0% ≤ substrate protein remaining % ≤80%) |
| Cc1cscc1C1=CCN(Cc2ccc3c(c2)C(=O)N(N2CCC(=O)NC2=O)C3=O)CC1 [GT-05316, 2-(2,4-dioxotetrahydropyrimidin-1(2H)-yl)-5-((4-(4-methylthiophen-3-yl)-3,6-dihydropyridin-1(2H)-yl)methyl)isoindoline-1,3-dione] | B (80%< substrate protein remaining % ≤100%) | B (80%< substrate protein remaining % ≤100%) | B (80%< substrate protein remaining % ≤100%) | B (80%< substrate protein remaining % ≤100%) | B (80%< substrate protein remaining % ≤100%) | A (0% ≤ substrate protein remaining % ≤80%) |
| O=C1CCN(N2C(=O)c3ccc(CN4CC=C(c5ccco5)CC4)cc3C2=O)C(=O)N1 [GT-05317, 2-(2,4-dioxotetrahydropyrimidin-1(2H)-yl)-5-((4-(furan-2-yl)-3,6-dihydropyridin-1(2H)-yl)methyl)isoindoline-1,3-dione] | B (80%< substrate protein remaining % ≤100%) | B (80%< substrate protein remaining % ≤100%) | B (80%< substrate protein remaining % ≤100%) | B (80%< substrate protein remaining % ≤100%) | B (80%< substrate protein remaining % ≤100%) | A (0% ≤ substrate protein remaining % ≤80%) |
| O=C1CCN(N2C(=O)c3ccc(CN4CCN(c5ccc(Cl)cn5)CC4)cc3C2=O)C(=O)N1 [GT-05350, 5-((4-(5-chloropyridin-2-yl)piperazin-1-yl)methyl)-2-(2,4-dioxotetrahydropyrimidin-1(2H)-yl)isoindoline-1,3-dione] | B (80%< substrate protein remaining % ≤100%) | B (80%< substrate protein remaining % ≤100%) | B (80%< substrate protein remaining % ≤100%) | B (80%< substrate protein remaining % ≤100%) | B (80%< substrate protein remaining % ≤100%) | A (0% ≤ substrate protein remaining % ≤80%) |
| Cc1cccc(N2CCN(Cc3ccc4c(c3)C(=O)N(N3CCC(=O)NC3=O)C4=O)CC2)n1 [GT-05352, 2-(2,4-dioxotetrahydropyrimidin-1(2H)-yl)-5-((4-(6-methylpyridin-2-yl)piperazin-1-yl)methyl)isoindoline-1,3-dione] | B (80%< substrate protein remaining % ≤100%) | B (80%< substrate protein remaining % ≤100%) | A (0% ≤ substrate protein remaining % ≤80%) | B (80%< substrate protein remaining % ≤100%) | B (80%< substrate protein remaining % ≤100%) | A (0% ≤ substrate protein remaining % ≤80%) |
| O=C1CCN(N2Cc3cc(CN4CCN(c5nccc(Cl)c5F)CC4)ccc3C2=O)C(=O)N1 [GT-05358, 1-(5-((4-(4-chloro-3-fluoropyridin-2-yl)piperazin-1-yl)methyl)-1-oxoisoindolin-2-yl)dihydropyrimidine-2,4(1H,3H)-dione] | B (80%< substrate protein remaining % ≤100%) | B (80%< substrate protein remaining % ≤100%) | B (80%< substrate protein remaining % ≤100%) | B (80%< substrate protein remaining % ≤100%) | B (80%< substrate protein remaining % ≤100%) | A (0% ≤ substrate protein remaining % ≤80%) |
| O=C1CCN(N2Cc3cc(CN4CCN(c5ccc(Cl)nc5)CC4)ccc3C2=O)C(=O)N1 [GT-05435, 1-(5-((4-(6-chloropyridin-3-yl)piperazin-1-yl)methyl)-1-oxoisoindolin-2-yl)dihydropyrimidine-2,4(1H,3H)-dione] | A (0% ≤ substrate protein remaining % ≤80%) | B (80%< substrate protein remaining % ≤100%) | B (80%< substrate protein remaining % ≤100%) | B (80%< substrate protein remaining % ≤100%) | B (80%< substrate protein remaining % ≤100%) | A (0% ≤ substrate protein remaining % ≤80%) |
| O=C1CCN(N2Cc3cc(CN4CCN(c5cncc(Cl)c5Cl)CC4)ccc3C2=O)C(=O)N1 [GT-05436, 1-(5-((4-(4,5-dichloropyridin-3-yl)piperazin-1-yl)methyl)-1-oxoisoindolin-2-yl)dihydropyrimidine-2,4(1H,3H)-dione] | A (0% ≤ substrate protein remaining % ≤80%) | B (80%< substrate protein remaining % ≤100%) | B (80%< substrate protein remaining % ≤100%) | B (80%< substrate protein remaining % ≤100%) | B (80%< substrate protein remaining % ≤100%) | A (0% ≤ substrate protein remaining % ≤80%) |
